This note sets out measurements from patent publication US12240862B2, “Inhibitors of peptidylarginine deiminases” (Gilead Sciences, Inc., priority 2020, dated 2025).

For orientation: pIC50 means −log10 of the IC50, conventionally taken in molar units.

pIC50: −log10 of the molar value.

In this assay the target is T1, human PAD4 (Homo sapiens, UniProt Q9UM07).
T1 construct: human PAD4 (NM_012387), A2P663, was PCR amplified; His-SUMO (N, cleaved yes); made in house; host or cells: E. coli BL21(DE3)
T1 sequence (Q9UM07 2-663): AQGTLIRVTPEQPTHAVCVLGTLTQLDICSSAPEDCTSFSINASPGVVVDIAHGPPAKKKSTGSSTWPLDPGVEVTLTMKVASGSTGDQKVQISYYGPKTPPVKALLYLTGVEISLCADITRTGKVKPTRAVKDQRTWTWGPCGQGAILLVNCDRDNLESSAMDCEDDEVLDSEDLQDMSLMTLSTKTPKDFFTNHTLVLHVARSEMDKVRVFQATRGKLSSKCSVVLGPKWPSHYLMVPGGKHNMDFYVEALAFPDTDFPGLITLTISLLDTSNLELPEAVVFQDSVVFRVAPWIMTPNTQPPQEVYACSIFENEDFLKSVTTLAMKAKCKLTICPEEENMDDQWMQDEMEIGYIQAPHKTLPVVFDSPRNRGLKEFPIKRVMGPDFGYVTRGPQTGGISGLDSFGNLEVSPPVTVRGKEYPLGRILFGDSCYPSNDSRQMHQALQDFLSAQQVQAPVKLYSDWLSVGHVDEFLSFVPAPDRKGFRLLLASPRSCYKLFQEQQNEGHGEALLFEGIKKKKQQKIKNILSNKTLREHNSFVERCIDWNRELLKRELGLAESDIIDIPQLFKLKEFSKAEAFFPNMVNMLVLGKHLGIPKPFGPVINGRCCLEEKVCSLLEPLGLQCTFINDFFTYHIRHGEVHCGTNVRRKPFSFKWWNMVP
The assay is described as follows: In vitro PAD4 BAEE biochemical assay. As to conditions: human PAD4, BAEE substrate; 5 nM PAD4, 2 mM calcium chloride, 3 mM BAEE; geometric mean of multiple experiments. The gist of the method: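 Ammonia generated from BAEE serves as the readout, measured by o-phthalaldehyde after EDTA termination. Final conditions: 5 nM human PAD4 (SUMO tag cleaved), 2 mM CaCl2, 3 mM BAEE, pH 7.6 MOPS buffer, 25 °C for 2 h following a 30-min compound preincubation.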
`COc1cc(C(=O)N2[C@H]3CC[C@@H]2[C@H](N)C3)cc2nc(-c3cc4ccc([C@@H](C)NC(=O)Nc5ccc(F)cc5F)nc4n3CC3CC3)c(C)n12` [Example 198, 1-[(1~{R})-1-[2-[7-[(1~{R},2~{R},4~{S})-2-amino-7-azabicyclo[2.2.1]heptane-7-carbonyl]-5-methoxy-3-methylimidazo [1,2-a]pyridin-2-yl]-1-(cyclopropylmethyl)pyrrolo [2,3-b]pyridin-6-yl]ethyl]-3-(2,4-difluorophenyl)urea]: the negative logarithm of the IC50 (pIC50) is 6.73. Next, `COc1cc(C(=O)N2[C@H]3CC[C@@H]2[C@H](N)C3)cc2nc(-c3cc4ccc(C(C)(C)NC(=O)C(C)(C)C)nc4n3CC3CC3)c(C)n12` [Example 168, ~{N}-[2-[2-[7-[(1~{R},2~{R},4~{S})-2-amino-7-azabicyclo[2.2.1]heptane-7-carbonyl]-5-methoxy-3-methylimidazo [1,2-a]pyridin-2-yl]-1-(cyclopropylmethyl)pyrrolo [2,3-b]pyridin-6-yl]propan-2-yl]-2,2-dimethylpropanamide]: 6.77; `COc1cc(C(=O)N2[C@H]3CC[C@@H]2[C@H](N)C3)cc2nc(-c3cc4ccc([C@@H](C)NC(=O)NC5CC6(CC6)C5)nc4n3CC3CC3)c(C)n12` [Example 204, 1-[(1~{R})-1-[2-[7-[(1~{R},2~{R},4~{S})-2-amino-7-azabicyclo[2.2.1]heptane-7-carbonyl]-5-methoxy-3-methylimidazo [1,2-a]pyridin-2-yl]-1-(cyclopropylmethyl)pyrrolo [2,3-b]pyridin-6-yl]ethyl]-3-spiro[2.3]hexan-5-ylurea]: 7.52. The result for `COc1cc(C(=O)N2[C@H]3CC[C@@H]2[C@H](N)C3)cc2nc(-c3cc4ccc(C5CCCN(C(=O)N6CCCC6)C5)nc4n3CC3CC3)c(C)n12` (stereo partly shown) [Example 518, [(1~{R},2~{R},4~{S})-2-amino-7-azabicyclo [2.2.1]heptan-7-yl]-[2-[1-(cyclopropylmethyl)-6-[1-(pyrrolidine-1-carbonyl)piperidin-3-yl]pyrrolo [2,3-b]pyridin-2-yl]-5-methoxy-3-methylimidazo [1,2-a]pyridin-7-yl] methanone] reads 6.46; that for `COc1cc(C(=O)N[C@H]2CNC[C@@H](F)C2)cc2nc(-c3cc4ccc(N(C(F)F)S(C)(=O)=O)nc4n3CC3CC3)c(C)n12` [Example 307, 2-[1-(cyclopropylmethyl)-6-[difluoromethyl (methylsulfonyl)amino]pyrrolo[2,3-b]pyridin-2-yl]-~{N}-[(3~{R},5~{S})-5-fluoropiperidin-3-yl]-5-methoxy-3-methylimidazo [1,2-a]pyridine-7-carboxamide], 4.59.

Take `COc1cc(C(=O)N2C[C@H]3CC[C@@H]2[C@@H]3N)cc2nc(-c3cc4ccc([C@@H](C)NC(=O)[C@H]5CC5(F)F)nc4n3CC3CC3)c(C)n12` [Example 100, (R)-N-((R)-1-(2-(7-((1R,4R,7R)-7-amino-2-azabicyclo[2.2.1]heptane-2-carbonyl)-5-methoxy-3-methylimidazo[1,2-a]pyridin-2-yl)-1-(cyclopropylmethyl)-1H-pyrrolo[2,3-b]pyridin-6-yl)ethyl)-2,2-difluorocyclopropane-1-carboxamide]: the negative-log IC50 (pIC50) is 7.12. The result for `COc1cc(C(=O)N2[C@H]3CC[C@@H]2[C@H](N)C3)cc2nc(-c3cc4ccc([C@@H](C)NC(=O)c5cnn(C)c5)nc4n3CC3CC3)c(C)n12` [Example 116, ~{N}-[(1~{R})-1-[2-[7-[(1~{R},2~{R},4~{S})-2-amino-7-azabicyclo[2.2.1]heptane-7-carbonyl]-5-methoxy-3-methylimidazo [1,2-a]pyridin-2-yl]-1-(cyclopropylmethyl)pyrrolo [2,3-b]pyridin-6-yl]ethyl]-1-methylpyrazole-4-carboxamide] reads 7.46; that for `CS(=O)(=O)N(c1ccc2cc(-c3nc4cc(C(=O)N5CCC[C@@H](N)C5)ccn4c3C3CC3)n(CC3CC3)c2n1)C(F)F` [Example 398, ~{N}-[2-[7-[(3~{R})-3-aminopiperidine-1-carbonyl]-3-cyclopropylimidazo[1,2-a]pyridin-2-yl]-1-(cyclopropylmethyl)pyrrolo [2,3-b]pyridin-6-yl]-~{N}-(difluoromethyl) methanesulfonamide], 7.22. Next, `COc1cc(C(=O)N2[C@H]3CC[C@@H]2[C@H](N)C3)cc2nc(-c3cc4ccc([C@H]5CCNC(=O)C5)nc4n3CC3CC3)c(C)n12` [Example 554, (4~{S})-4-[2-[7-[(1~{R}, 2~{R},4~{S})-2-amino-7-azabicyclo[2.2.1]heptane-7-carbonyl]-5-methoxy-3-methylimidazo [1,2-a]pyridin-2-yl]-1-(cyclopropylmethyl)pyrrolo [2,3-b]pyridin-6-yl]piperidin-2-one]: 7.09; `COCc1nn(C)cc1C(=O)N[C@H](C)c1ccc2cc(-c3nc4cc(C(=O)N5[C@H]6CC[C@@H]5[C@H](N)C6)cc(OC)n4c3C)n(CC3CC3)c2n1` [Example 23, ~{N}-[(1~{R})-1-[2-[7-[(1~{R},2~{R},4~{S})-2-amino-7-azabicyclo [2.2.1]heptane-7-carbonyl]-5-methoxy-3-methylimidazo [1,2-a]pyridin-2-yl]-1-(cyclopropylmethyl)pyrrolo[2,3-b]pyridin-6-yl]ethyl]-3-(methoxymethyl)-1-methylpyrazole-4-carboxamide]: 7.21. The result for `CC[C@@](C)(O)c1ccc2cc(-c3nc4cc(C(=O)N5[C@H]6CC[C@@H]5[C@H](N)C6)cc(OC)n4c3C)n(CC3CC3)c2n1` [Example 566, [(1~{R},2~{R},4~{S})-2-amino-7-azabicyclo [2.2.1]heptan-7-yl]-[2-[1-(cyclopropylmethyl)-6-[(2~{R})-2-hydroxybutan-2-yl]pyrrolo[2,3-b]pyridin-2-yl]-5-methoxy-3-methylimidazo [1,2-a]pyridin-7-yl]methanone] reads 6.91; that for `COc1cc(C(=O)N2[C@H]3CC[C@@H]2[C@H](N)[C@H](OC)C3)cc2nc(-c3cc4ccc([C@@H](C)NC(=O)C56CC(F)(C5)C6)nc4n3CC3CC3)c(C)n12` [Example 183, ~{N}-[(1~{R})-1-[2-[7-[(1~{R},2~{S},3~{R}, 5~{S})-2-amino-3-methoxy-8-azabicyclo [3.2.1]octane-8-carbonyl]-5-methoxy-3-methylimidazo [1,2-a]pyridin-2-yl]-1-(cyclopropylmethyl)pyrrolo [2,3-b]pyridin-6-yl]ethyl]-3-fluorobicyclo[1.1.1]pentane-1-carboxamide], 6.63; that for `COc1cc(C(=O)N2[C@H]3CC[C@@H]2[C@H](N)C3)cc2nc(-c3cc4ccc(N5C(C)CCCCS5(=O)=O)nc4n3CC3CC3)c(C)n12` (stereo partly shown) [Example 445, [(1~{R},2~{R},4~{S})-2-amino-7-azabicyclo[2.2.1]heptan-7-yl]-[2-[1-(cyclopropylmethyl)-6-(3-methyl-1,1-dioxothiazepan-2-yl)pyrrolo [2,3-b]pyridin-2-yl]-5-methoxy-3-methylimidazo[1,2-a]pyridin-7-yl]methanone], 7.09. `COc1cc(C(=O)N2[C@H]3CC[C@@H]2[C@H](N)C3)cc2nc(-c3cc4ccc([C@@H](C)NC(=O)N5CCOCC5)nc4n3CC3CC3)c(C)n12` [Example 241, ~{N}-[(1~{R})-1-[2-[7-[(1~{R},2~{R},4~{S})-2-amino-7-azabicyclo[2.2.1]heptane-7-carbonyl]-5-methoxy-3-methylimidazo [1,2-a]pyridin-2-yl]-1-(cyclopropylmethyl)pyrrolo [2,3-b]pyridin-6-yl]ethyl] morpholine-4-carboxamide]: the pIC50 was 7.26. The result for `CCC(NC(C)=O)c1ccc2cc(-c3nc4cc(C(=O)N5CCC[C@@H](N)C5)cc(OC)n4c3C)n(CC3CC3)c2n1` (stereo partly shown) [Example 193, ~{N}-[1-[2-[7-[(3~{R})-3-aminopiperidine-1-carbonyl]-5-methoxy-3-methylimidazo [1,2-a]pyridin-2-yl]-1-(cyclopropylmethyl)pyrrolo [2,3-b]pyridin-6-yl]propyl]acetamide] reads 6.40. In the case of `COc1cc(C(=O)N2CCC[C@@H](N)C2)cc2nc(-c3cc4ccc(-c5cccnc5N5CCOCC5)nc4n3CC3CC3)c(C)n12` [Example 606, [(3~{R})-3-aminopiperidin-1-yl]-[2-[1-(cyclopropylmethyl)-6-(2-morpholin-4-ylpyridin-3-yl)pyrrolo[2,3-b]pyridin-2-yl]-5-methoxy-3-methylimidazo[1,2-a]pyridin-7-yl]methanone], the pIC50 is 6.43.

Regarding `COc1cc(C(=O)N2CC3(CNC3)C2)cc2nc(-c3cc4ccc(N(C(F)F)S(C)(=O)=O)nc4n3CC3CC3)c(C)n12` [Example 367, ~{N}-[1-(cyclopropylmethyl)-2-[7-(2,6-diazaspiro[3.3]heptane-2-carbonyl)-5-methoxy-3-methylimidazo[1,2-a]pyridin-2-yl]pyrrolo[2,3-b]pyridin-6-yl]-~{N}-(difluoromethyl) methanesulfonamide], the negative-log IC50 (pIC50) is 5.27.

As to `CCc1cc2c(cc1F)cc(-c1nc3cc(C(=O)N4CCC[C@@H](N)C4)cc(OC)n3c1C)n2CC1CC1` [Example 589, [(3~{R})-3-aminopiperidin-1-yl]-[2-[1-(cyclopropylmethyl)-6-ethyl-5-fluoroindol-2-yl]-5-methoxy-3-methylimidazo[1,2-a]pyridin-7-yl]methanone], the pIC50 is 5.57. The result for `COc1cc(C(=O)N2[C@H]3CC[C@@H]2[C@H](N)C3)cc2nc(-c3cc4ccc([C@@H](C)NC(C)=O)nc4n3CC3CC3)c(C3CC3)n12` [Example 178, ~{N}-[(1~{R})-1-[2-[7-[(1~{R},2~{R},4~{S})-2-amino-7-azabicyclo[2.2.1]heptane-7-carbonyl]-3-cyclopropyl-5-methoxyimidazo [1,2-a]pyridin-2-yl]-1-(cyclopropylmethyl)pyrrolo [2,3-b]pyridin-6-yl]ethyl] acetamide] reads 7.05.
